Results on twelve compounds are retold here after ChEMBL document CHEMBL1201862, “PubChem BioAssay data set” (2004).

The structures appear in SMILES notation.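 Each compound was tested at five concentrations against cells in 96-well plates for 48 hours. Abbreviation: GI50, concentration required for 50% inhibition of growth.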 Activity calls are given as the source filed them. Cut-off read from the data, not from the text of the source: active = GI50 up to about 1.1 µM and inactive = higher.

Holding throughout (test): NCI anticancer screen, dose series, 48 h
Assay [1] relates to KM12.
Assay [2] relates to SW-620.
Assay [3] relates to OVCAR-8.
The test system of assay [4] is SK-OV-3.
Assay [5] concerns HOP-92.
In assay [6] the test system is HL-60.
Assay [7] has as its system ACHN.
In assay [8] the test system is HOP-62.
The test system of assay [9] is HT-29.
The test system of assay [10] is IGROV-1.
In assay [11] the test system is SK-MEL-2.
The test system of assay [12] is OVCAR-5.
For assay [13], the system named is U-251.
The subject of assay [14] is 786-0.
Assay [15] deals with A498.
The test system of assay [16] is NCI-H23.
In assay [17] the test system is SF-539.

`Cn1ncc2c(Nc3ccc(Cl)cc3)c3ccccc3nc21`: the GI50 is 18.7 µM (inactive) in assay [1]; 16.6 µM (inactive) in assay [2]; 14.8 µM (inactive) in assay [3]; 20.5 µM (inactive) in assay [4]; 17.6 µM (inactive) in [5]; 23.4 µM (inactive) in assay [6]. In addition, the GI50 is 17 µM (inactive) in assay [7]; 16.4 µM (inactive) in assay [8]; 13.5 µM (inactive) in assay [9]; 21.2 µM (inactive) in [10]; 18.4 µM (inactive) in assay [11]; 23.2 µM (inactive) in assay [12]. Moreover, the GI50 in assay [13] is 15.6 µM (inactive); in [14], 14.1 µM (inactive); in assay [15] it was 14.8 µM (inactive); in assay [16] it was > 10 µM (inactive); in assay [17], 15.6 µM (inactive).

Regarding `Cn1cnc([N+](=O)[O-])c1Sc1nc2ccccc2[nH]1`, the GI50 in assay [1] is 19.5 µM (inactive); in [2], > 10 µM (inactive); in assay [3] it was 11.7 µM (inactive); in assay [4], 21.7 µM (inactive); in assay [5], 18.5 µM (inactive); in [6] it was 9.29 µM (inactive). In addition, the GI50 in [7] is 22.8 µM (inactive); in assay [8], > 100 µM (inactive); in assay [9], 27.7 µM (inactive); in assay [10], 13.9 µM (inactive); in assay [12] it was 52.8 µM (inactive); in assay [13] it was 20 µM (inactive). The GI50 was 41.1 µM (inactive) in assay [14], 21.2 µM (inactive) in assay [15], 19.1 µM (inactive) in assay [16] and 14.2 µM (inactive) in assay [17].

Take `CC1(C)O[C@@H](CCl)C[C@H](C#N)O1`: the GI50 in assay [1], in assay [2], in [3], in [4], in [5] and in assay [6] was > 100 µM (inactive) throughout. For the same compound, the GI50 in assay [7], in assay [8], in assay [9], in assay [10], in assay [11] and in assay [12] was > 100 µM (inactive) throughout. In addition, the GI50 in [13], in [14], in assay [15], in assay [16] and in assay [17] was > 100 µM (inactive) each time.

As for `O=C1OC2C(O)COC2(O)C1(O)Cc1c[nH]c2ccccc12` (stereo unspecified), the GI50 in [1], in assay [2], in assay [3], in assay [4], in assay [5] and in assay [6] was > 100 µM (inactive) each time. In addition, the GI50 in assay [8], in assay [9], in assay [10], in assay [11], in [12] and in assay [13] was > 100 µM (inactive) each time. The GI50 in [14], in assay [15], in assay [16] and in assay [17] was > 100 µM (inactive) each time.

As to `Cn1c(=O)c2nc(NCCO)cnc2n(C)c1=O`, the GI50 in [1] was 27.2 µM (inactive); in assay [2], 55.6 µM (inactive); in assay [3], > 100 µM (inactive); in [4], > 100 µM (inactive); in assay [5], > 100 µM (inactive); in [6], 27.2 µM (inactive). The GI50 in assay [7] was > 100 µM (inactive); in assay [8], 71.1 µM (inactive); in [9] it was > 100 µM (inactive); in assay [10], > 100 µM (inactive); in assay [11] it was 26.6 µM (inactive); in [12], > 100 µM (inactive). The GI50 in assay [13] is 32.9 µM (inactive); in assay [15], > 100 µM (inactive); in assay [16] it was > 100 µM (inactive); in assay [17], 31.8 µM (inactive).

Turning to `COC(=O)c1nc(NN)cc(O)c1CCCCCc1c(O)nc(NN)nc1C(=O)OC`, the GI50 in [1] was > 100 µM (inactive); in assay [2], > 59.3 µM (inactive); in assay [3] it was > 100 µM (inactive); in [4], > 100 µM (inactive); in assay [5] it was > 100 µM (inactive); in [6] it was > 100 µM (inactive). Moreover, the GI50 in assay [7], in assay [8], in [9], in assay [10], in assay [11] and in assay [12] was > 100 µM (inactive) throughout. Also, the GI50 in [13], in assay [14], in assay [15], in assay [16] and in assay [17] was > 100 µM (inactive) each time.

As to `CCN(CC)CC1CCCCN1CC(=O)N1c2cc(Cl)ccc2NC(=O)CC1C` (stereo unspecified), the GI50 was > 100 µM (inactive) in assay [1]; > 100 µM (inactive) in assay [2]; > 100 µM (inactive) in assay [3]; 0.0849 µM (active) in assay [4]; > 100 µM (inactive) in [5]; > 100 µM (inactive) in assay [6]. The GI50 in assay [7], in assay [8], in [11], in assay [12], in assay [13] and in assay [14] was > 100 µM (inactive) each time. For the same compound, the GI50 in assay [15], in assay [16] and in assay [17] was > 100 µM (inactive) in each case.

As to `COc1cc(OC)c(Oc2cccc(OC)c2OC)c(OC)c1`, the GI50 in assay [1], in assay [2], in assay [3], in [4], in [5] and in assay [7] was > 100 µM (inactive) each time. In addition, the GI50 in assay [8], in assay [9], in assay [10], in assay [11], in assay [12] and in [13] was > 100 µM (inactive) in each case. Further, the GI50 in [14], in assay [15], in assay [16] and in [17] was > 100 µM (inactive) throughout.

With `O=C1OCC/C1=N/O`, the GI50 in assay [1], in [2], in [3], in assay [4], in [5] and in assay [6] was > 100 µM (inactive) in each case. Further, the GI50 in assay [7], in assay [9], in [10], in assay [11], in assay [12] and in assay [13] was > 100 µM (inactive) in each case. For the same compound, the GI50 in assay [14], in [15], in assay [16] and in [17] was > 100 µM (inactive) in each case.

For the compound `CC(C)(C)[Si](Nc1ccccc1)(c1ccccc1)c1ccccc1`, the GI50 in assay [1] is 13.9 µM (inactive); in assay [2], 17.4 µM (inactive); in [3], 17.7 µM (inactive); in assay [4], 17.1 µM (inactive); in [5], 13.9 µM (inactive); in [6], 13.6 µM (inactive). Besides, the GI50 in assay [7] was 16.2 µM (inactive); in assay [8], 16.8 µM (inactive); in assay [9], 14.7 µM (inactive); in [10], 14.7 µM (inactive); in [11] it was 18.4 µM (inactive); in assay [13] it was 13.8 µM (inactive). Besides, the GI50 in assay [14] is 15 µM (inactive); in assay [15], 17.3 µM (inactive); in assay [16], 16.9 µM (inactive); in [17], 12.5 µM (inactive).

Consider `Cn1ccnc1C(c1nccn1C)C(C)(C)[N+](=O)[O-]`, for which the GI50 in assay [1], in assay [2], in assay [3], in [4], in assay [5] and in assay [6] was > 100 µM (inactive) each time. The GI50 in assay [7], in assay [8], in [11], in assay [13], in [14] and in assay [15] was > 100 µM (inactive) throughout. Besides, the GI50 in assay [17] was > 100 µM (inactive).

For the compound `Nc1nc(SCCC/C=C/I)nc2c1ncn2C1OC(COP(=O)(O)O)C(O)C1O` (stereo unspecified), the GI50 in [1], in [2], in assay [3], in assay [4], in assay [5] and in assay [6] was > 100 µM (inactive) throughout. Also, the GI50 in [7], in assay [8], in [9], in assay [10], in assay [11] and in [12] was > 100 µM (inactive) in each case. The GI50 in assay [13], in assay [15], in assay [16] and in [17] was > 100 µM (inactive) in each case.
